Broadly, the IC50 is the point on the concentration scale where inhibition reaches its midpoint.

Where a name gives a salt, the structure may show the parent alone.

The source of these data is patent US7838674B2, “Tetracyclic lactame derivatives” (Novartis AG, priority 2007, dated 2010).

T1 sequence (P49137 whole entry): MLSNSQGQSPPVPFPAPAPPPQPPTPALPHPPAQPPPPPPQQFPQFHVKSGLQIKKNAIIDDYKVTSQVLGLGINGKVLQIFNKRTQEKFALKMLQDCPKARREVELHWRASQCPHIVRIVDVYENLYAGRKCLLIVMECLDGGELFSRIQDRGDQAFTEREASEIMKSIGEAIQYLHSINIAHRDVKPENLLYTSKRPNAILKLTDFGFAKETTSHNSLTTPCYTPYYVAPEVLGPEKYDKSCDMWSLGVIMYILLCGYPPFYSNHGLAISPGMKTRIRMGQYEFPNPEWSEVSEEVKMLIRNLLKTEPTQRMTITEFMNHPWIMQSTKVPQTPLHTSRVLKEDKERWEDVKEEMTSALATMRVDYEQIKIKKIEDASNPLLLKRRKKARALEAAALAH

The experiment has as its target T1, MAPKAPK2 enzyme (HIS-MK2, Invitrogen PV4019) (Homo sapiens, UniProt P49137).
T1 construct: His; purchased Invitrogen PV4019
Description: Alternative MAPKAPK2 assay (Caliper microfluidic mobility shift, HSP27-peptide). It is filed as biochemical. The note with it: HIS-MK2 0.013 nM, ATP 10 μM, 60 min at 30° C.
Regarding `O=C1NCC2(CC2)c2[nH]c3c(c21)CCc1cnc(-c2cccnc2)cc1-3` [Example 125, 2-(1-Aminomethyl-cyclopropyl)-8-pyridin-3-yl-4,5-dihydro-1H-pyrrolo[2,3-f]isoquinoline-3-carboxylic acid lactam], the IC50 was 16 nM.
Consider `CC(C)(O)CCc1ccc(-c2cc3c(cn2)CCc2c-3[nH]c3c2C(=O)NCC32CC2)cc1` [Example 126, 2-(1-Aminomethyl-cyclopropyl)-8-[4-(3-hydroxy-3-methyl-butyl)-phenyl]-4,5-dihydro-1H-pyrrolo[2,3-f]isoquinoline-3-carboxylic acid lactam], for which the IC50 is 34 nM.
With `CN1CCOc2cc(-c3cc4c(cn3)CCc3c-4[nH]c4c3C(=O)NCC43CC3)ccc21` [Example 130, 2-(1-Aminomethyl-cyclopropyl)-8-(4-methyl-3,4-dihydro-2H-benzo[1,4]oxazin-7-yl)-4,5-dihydro-1H-pyrrolo[2,3-f]isoquinoline-3-carboxylic acid lactam] the figure was 45 nM; with `COc1ccc(-c2ncc3c(n2)-c2c(c4c(n2C)CC2(CNC2)NC4=O)CC3)cc1` [Example 131, 2-(3-Amino-azetidin-3-ylmethyl)-8-(4-methoxy-phenyl)-1-methyl-4,5-dihydro-1H-1,7,9-triaza-cyclopenta[a]naphthalene-3-carboxylic acid lactam hydrochloride], 6 nM; with `Cn1c2c(c3c1-c1cc(-c4cccc(C#N)c4)ncc1CC3)C(=O)NC1(CNC1)C2` [Example 132, 2-(3-Amino-azetidin-3-ylmethyl)-8-(3-cyano-phenyl)-1-methyl-4,5-dihydro-1H-pyrrolo[2,3-f]isoquinoline-3-carboxylic acid lactam hydrochloride], 14 nM.
On to `Cn1c2c(c3c1-c1cc(-c4cccc(F)c4)ncc1CC3)C(=O)NC1(CNC1)C2` [Example 133, 2-(3-Amino-azetidin-3-ylmethyl)-8-(3-fluoro-phenyl)-1-methyl-4,5-dihydro-1H-pyrrolo[2,3-f]isoquinoline-3-carboxylic acid lactam hydrochloride], for which the IC50 is 18 nM.
Then `Cn1c2c(c3c1-c1cc(-c4ccc(F)nc4)ncc1CC3)C(=O)NC1(CNC1)C2` [Example 134, 2-(3-Amino-azetidin-3-ylmethyl)-8-(6-fluoro-pyridin-3-yl)-1-methyl-4,5-dihydro-1H-pyrrolo[2,3-f]isoquinoline-3-carboxylic acid lactam hydrochloride], with 20 nM; and `Cn1c2c(c3c1-c1cc(-c4cncc(-c5ccccc5F)c4)ncc1CC3)C(=O)NC1(CNC1)C2` [Example 135, 2-(3-Amino-azetidin-3-ylmethyl)-8-[5-(2-fluoro-phenyl)-pyridin-3-yl]-1-methyl-4,5-dihydro-1H-pyrrolo[2,3-f]isoquinoline-3-carboxylic acid lactam hydrochloride], with 32 nM.
With `Cn1c2c(c3c1-c1cc(-c4cncc(-c5ccc(F)cc5)c4)ncc1CC3)C(=O)NC1(CNC1)C2` [Example 136, 2-(3-Amino-azetidin-3-ylmethyl)-8-[5-(4-fluoro-phenyl)-pyridin-3-yl]-1-methyl-4,5-dihydro-1H-pyrrolo[2,3-f]isoquinoline-3-carboxylic acid lactam hydrochloride] the figure was 23 nM; with `COc1cccc(-c2ncc3c(n2)-c2c(c4c(n2C)CC2(CNC2)NC4=O)CC3)c1` [Example 137, 2-(3-Amino-azetidin-3-ylmethyl)-8-(3-methoxy-phenyl)-1-methyl-4,5-dihydro-1H-1,7,9-triaza-cyclopenta[a]naphthalene-3-carboxylic acid lactam hydrochloride], 49 nM; with `Cn1c2c(c3c1-c1nc(-c4ccc(Br)cc4)ncc1CC3)C(=O)NC1(CNC1)C2` [Example 139, 2-(3-Amino-azetidin-3-ylmethyl)-8-(4-bromo-phenyl)-1-methyl-4,5-dihydro-1H-1,7,9-triaza-cyclopenta[a]naphthalene-3-carboxylic acid lactam hydrochloride], 18 nM.
Then `COc1cncc(-c2cc3c(cn2)CCc2c4c(n(C)c2-3)CC2(CNC2)NC4=O)c1` [Example 140, 2-(3-Amino-azetidin-3-ylmethyl)-8-(5-methoxy-pyridin-3-yl)-1-methyl-4,5-dihydro-1H-pyrrolo[2,3-f]isoquinoline-3-carboxylic acid lactam hydrochloride], with 12 nM; and `COc1ccc(-c2cc3c(cn2)CCc2c4c(n(C)c2-3)CC2(CNC2)NC4=O)cn1` [Example 141, 2-(3-Amino-azetidin-3-ylmethyl)-8-(6-methoxy-pyridin-3-yl)-1-methyl-4,5-dihydro-1H-pyrrolo[2,3-f]isoquinoline-3-carboxylic acid lactam hydrochloride], with 17 nM.
As to `COc1ccc(-c2cc3c(cn2)CCc2c4c(n(C)c2-3)CC2(CN(C)C2)NC4=O)cn1` [Example 142, 2-(3-Amino-1-methyl-azetidin-3-ylmethyl)-8-(6-methoxy-pyridin-3-yl)-1-methyl-4,5-dihydro-1H-pyrrolo[2,3-f]isoquinoline-3-carboxylic acid lactam], the IC50 turned out to be 34 nM.
Then `COc1cc(OC)cc(-c2cc3c(cn2)CCc2c4c(n(C)c2-3)CC2(CNC2)NC4=O)c1` [Example 143, 2-(3-Amino-azetidin-3-ylmethyl)-8-(3,5-dimethoxy-phenyl)-1-methyl-4,5-dihydro-1H-pyrrolo[2,3-f]isoquinoline-3-carboxylic acid lactam hydrochloride], with 69 nM; and `COc1ccc(-c2cc3c(cn2)CCc2c4c(n(C)c2-3)CC2(CNC2)NC4=O)cc1OC` [Example 144, 2-3-Amino-azetidin-3-ylmethyl)-8-(3,4-dimethoxy-phenyl)-1-methyl-4,5-dihydro-1H-pyrrolo[2,3-f]isoquinoline-3-carboxylic acid lactam hydrochloride], with 58 nM.
For `CN1CCOc2cc(-c3cc4c(cn3)CCc3c5c(n(C)c3-4)CC3(CNC3)NC5=O)ccc21` [Example 145, 2-(3-Amino-azetidin-3-ylmethyl)-1-methyl-8-(4-methyl-3,4-dihydro-2H-benzo[1,4]oxazin-7-yl)-4,5-dihydro-1H-pyrrolo[2,3-f]isoquinoline-3-carboxylic acid lactam hydrochloride], the IC50 worked out at 29 nM.
Then `Cn1c2c(c3c1-c1cc(-c4cccc(N5CCOCC5)c4)ncc1CC3)C(=O)NC1(CNC1)C2` [Example 146, 2-(3-Amino-azetidin-3-ylmethyl)-8-(3-morpholin-4-yl-phenyl)-1-methyl-4,5-dihydro-1H-pyrrolo[2,3-f]isoquinoline-3-carboxylic acid lactam hydrochloride], with 45 nM; and `CN(C)c1ccc(-c2cc3c(cn2)CCc2c4c(n(C)c2-3)CC2(CNC2)NC4=O)cn1` [Example 147, 2-(3-Amino-azetidin-3-ylmethyl)-8-(6-dimethylamino-pyridin-3-yl)-1-methyl-4,5-dihydro-1H-pyrrolo[2,3-f]isoquinoline-3-carboxylic acid lactam hydrochloride], with 89 nM; and `Cn1c2c(c3c1-c1cc(-c4ccc5c(c4)OCCO5)ncc1CC3)C(=O)NC1(CNC1)C2` [Example 148, 2-(3-Amino-azetidin-3-ylmethyl)-8-(2,3-dihydro-benzo[1,4]dioxin-6-yl)-1-methyl-4,5-dihydro-1H-pyrrolo[2,3-f]isoquinoline-3-carboxylic acid lactam hydrochloride], with 15 nM.
Consider `Cn1c2c(c3c1-c1cc(-c4ccc(N5CCCCC5)nc4)ncc1CC3)C(=O)NC1(CNC1)C2` [Example 149, 2-(3-Amino-azetidin-3-ylmethyl)-8-(6-piperidinyl-pyridin-3-yl)-1-methyl-4,5-dihydro-1H-pyrrolo[2,3-f]isoquinoline-3-carboxylic acid lactam hydrochloride], for which the IC50 was found to be 23 nM.
Then `Cc1ccc(-c2cc3c(cn2)CCc2c4c(n(C)c2-3)CC2(CN(C)C2)NC4=O)cn1` [Example 150, 2-(3-Amino-1-methyl-azetidin-3-ylmethyl)-8-(6-methyl-pyridin-3-yl)-1-methyl-4,5-dihydro-1H-pyrrolo[2,3-f]isoquinoline-3-carboxylic acid lactam], with 92 nM.
Then `Cc1ccc(-c2cc3c(cn2)CCc2c4c(n(C)c2-3)CC2(CNC2)NC4=O)cn1` [Example 151, 2-(3-Amino-azetidin-3-ylmethyl)-8-(6-methyl-pyridin-3-yl)-1-methyl-4,5-dihydro-1H-pyrrolo[2,3-f]isoquinoline-3-carboxylic acid lactam hydrochloride], with 35 nM; and `Cn1c2c(c3c1-c1cc(-c4ccncc4)ncc1CC3)C(=O)NC1(CNC1)C2` [Example 152, 2-(3-Amino-azetidin-3-ylmethyl)-8-(pyridin-4-yl)-1-methyl-4,5-dihydro-1H-pyrrolo[2,3-f]isoquinoline-3-carboxylic acid lactam hydrochloride], with 15 nM; and `Cn1c2c(c3c1-c1cc(-c4cccnc4)ncc1CC3)C(=O)NC1(CNC1)C2` [Example 153, 2-(3-Amino-azetidin-3-ylmethyl)-8-(pyridin-3-yl)-1-methyl-4,5-dihydro-1H-pyrrolo[2,3-f]isoquinoline-3-carboxylic acid lactam hydrochloride], with 17 nM.
Consider `O=C1NCC2(CNC2)c2[nH]c3c(c21)CCc1cnc(-c2ccc(Oc4ccc(F)cc4F)nc2)cc1-3` [Example 154, 2-(3-Aminomethyl-azetidin-3-yl)-8-[6-(2,4-difluoro-phenoxy)-pyridin-3-yl]-4,5-dihydro-1H-pyrrolo[2,3-f]isoquinoline-3-carboxylic acid lactam], for which the IC50 is < 3 nM.
Then `Cc1ccc(-c2cc3c(cn2)CCc2c-3[nH]c3c2C(=O)NC2(CC2)C3)c(F)n1` [Example 158, 2-(1-Amino-cyclopropylmethyl)-8-(2-fluoro-6-methyl-pyridin-3-yl)-4,5-dihydro-1H-pyrrolo[2,3-f]isoquinoline-3-carboxylic acid lactam], with 51 nM.
